Results reported in patent publication US7517644B1, “Method and compositions for cellular reprogramming” (priority 1991, dated 2009).

What was measured:
[1] = tested on: AML blast cells freshly obtained from patients; experiment: junD ODN on fresh AML blasts: suspension culture viable counts and blast colony assay; type: cell-based, human; settings: 7 days incubation, suspension culture viable cell counts
Experimental: In the initial tests, the H(1)junD oligo or a control ODN were incubated with AML blast cells for seven days. The blast cells were freshly obtained from patients with AML and were cultured and evaluated for ODN effects as described by Bayever et al.(Leukemia and Lymphoma 12: 223-231, 1994). In brief, after the incubation with ODNs, the blast cells were then washed, and adjusted to 10^5 cells per ml and continued in culture for several more days. Viable cell counts were performed every 2-3 days on suspension cultures and oligo-treated blast cells were plated in the “blast colony assay” to determine the effects of the ODNs on the leukemic stem cells.

[2] = tested on: DU-145 prostate cancer cells; experiment: sensitization of MRP-expressing prostate cancer cells to drug (Table XVII); type: cell-based, human
[3] = tested on: drug-sensitive (parent) cancer cell lines; experiment: drug sensitization of drug-sensitive (parent) cancer cell lines (Table XVII); type: cell-based, human
From the text: The enhanced reduction in P-glycoprotein expression due to the combined antisense and aptameric-like effects likely causes the associated reduction in cell proliferation. It has been previously shown that treating P-glycoprotein-expressing cells with monoclonal antibodies capable of binding to and blocking P-glycoprotein function leads to a substantial reduction in the proliferation of the treated cells. […] The term “aptameric-like” is used because the effect seen is seen with some sequences but not others (aptameric); aptameric-like effects are substantially more common among ODN sequences than are the usual aptameric effects. […] In general, this situation in which the antisense and an aptameric-like effect of an ODN both act to reduce expression of the same gene (e.g., MDR1) can be expected to be a very uncommon finding among antisense ODN therapeutics directed to other gene targets. […]

[4] = tested on: 8226/Dox cells; experiment: sensitization of P-glycoprotein-expressing drug-resistant cells to vincristine (Table XVII); type: cell-based, human; settings: for Fold increase in Drug Sensitivity: 8226/Dox6 cells, versus media control; for sensitization to vincristine: P-glycoprotein-expressing drug-resistant 8226/Dox
Experimental: To determine relative activity among the various MDR1 antisense ODNs, they were incubated at several different ODN concentrations in cell culture medium with the human multiple myeloma cell lines 8226/Dox4 or 8226/Dox6 (gifts of Dr. William Dalton, University of Arizona Cancer Center, Tucson) (Dalton et al., Cancer Res. 46: 5125, 1986). Specifically, the human myeloma cells were incubated with the antisense ODNs for four (4) days, in a humidified, 5% CO2 atmosphere containing a reduced oxygen level of 5%, maintained by purging the culture incubator with nitrogen gas in place of ambient room air. Addition of an antioxidant to the cultures during exposure of the cells to the ODN further reduces the effects of the free radicals induced by the ODNs on cells (this effect can include increased expression of MDR1). The cell cultures were then incubated with a chemotherapeutic anti-cancer agent overnight (15-18 hrs), after which the cell cultures were washed repeatedly and then seeded into 96-well microtest plates to permit quantitative analysis of their growth. Tritiated-thymidine was added to these cultures for 18-hrs prior to termination of the assays on day 4 following exposure to the anticancer agents. Each test combination of cells, antisense ODN and anti-cancer agent was run in quadruplicate replicates.

[5] = tested on: ovarian carcinoma; experiment: anticancer effect of junD ODN on solid tumors; type: cell-based
[6] = tested on: malignant cell lines

| Substance | antileukemic effect [1] | sensitization to chemotherapeutic agent ([2]; DU-145, express MRP and not P-glycoprotein) | Fold increase in Drug Sensitivity ([2]; DU-145 cells, versus media control) | drug sensitization of drug-sensitive lines [3] | Fold increase in Drug Sensitivity ([3]; 8226/sensitive parent cells, versus media control) | Fold increase in Drug Sensitivity [4] | sensitization to vincristine [4] | anticancer effects on solid tumors [5] | cytotoxic or anticancer growth-inhibitory effect on malignant cell lines [6] |
| --- | --- | --- | --- | --- | --- | --- | --- | --- | --- |
| H(1)junD: junD antisense ODN, GTCGGCGTGG TGGTGA (antisense GTCGGCGTGGTGGTGA; DNA, backbone and methylation of C not given here; listed as Homo sapiens) | as great or a greater antileukemic effect than OL(1)p53 | sensitize | 19 | minimal sensitizing potential | 3 | 500 | sensitize | anticancer effects | less of a cytotoxic or anticancer growth-inhibitory effect |
| H(2)junD: junD antisense ODN, GCTCGTCGGC GTGGTGGTGA (antisense GCTCGTCGGCGTGGTGGTGA; DNA, backbone and methylation of C not given here; listed as Homo sapiens) |  |  |  |  |  | 1091 | sensitize |  | less of a cytotoxic or anticancer growth-inhibitory effect |
